What was measured:
[1] = test system: EAAT2; experiment: Spinal cord organotypic culture screen for EAAT2 protein expression (slot blot); assay type: cell-based, rat; conditions: for EAAT2 expression: positive controls, after 3 days in culture
Source text: Screening Assay for EAAT2 Protein overexpression. Spinal cord organotypic cultures and astroglial cultures are used to screen for drugs capable of stimulating EAAT2 synthesis and function. Organotypic cultures offer the advantage in that they maintain the normal architecture of neuron-astroglial interactions in vitro and are derived from post natal tissue; thus may better reflect astroglial responses in vivo (rather than embryonic cells). Thus a drug that acts either on an astrocyt—or induces neurons to secrete factors that alert astrocytes—better reflects the “natural” condition of delivering a drug to a whole animal.
Organotypic Spinal Cord. Spinal cord organotypic cultures have been described by us in detail in the past. Rothstein J D et al., N. Engl. J. Med. 1992; 326:1464-1468. Briefly, 300 um sections of rat lumbar spinal cord, from postnatal day 8-10 rat pups, are placed on Millipore Millicell CM semipermeable membranes. Each well contains 5 slices (FIG. 2A). Fifty-100 cultures can be prepared weekly. Each drug (10-100 μM) was added for 3-7 days, along with cell culture medium/serum. Cultures were harvested and 5-50 μg of tissue was applied to slot blot apparatus for detection of EAAT2 by standard Western blotting/chemiluminescence methods described in the past. Kuncl R W et al., Motor neuron diseases. In: Asbury A K et al., editors. Diseases of the Nervous System. 2 ed. Philadelphia: W. B. Saunders, 1992:1179-1208; Rothstein J D et al., Neuron 1994; 13:713-725. All antipeptide antibodies were affinity purified and highly specific for transporter subtypes. By this method, increases greater than 50% of expressed protein can be detected. For each antibody slot blot, the homogenates used are expected to be within the linear range for antibody detection, based on prior standard curves.
Screening Library-Assay Design. The library of compounds for these first studies was the NINDS Custom Collection from Microsource Discovery. The library is composed of 1040 compounds in 96 well plates, that also included positive control for transporter synthesis (dibutyryl cyclic AMP [dbcAMP], GDNF). […] The library is a unique collection of known bioactive compounds that permit the simultaneous evaluation of hundreds of marketed drugs and biochemical standards. Each compound was studied at a final concentration of 10-100 μM. All assays were performed in duplicate. Every blot included control—untreated tissue and a positive control, such as those identified above.
Data Analysis. All blots were analyzed by laser densitometry (BioRad Image Quant) and the duplicate points were averaged. Each blot included a positive control standard (e.g. dbcAMP) and a negative control standard (e.g. serum, DMSO). Data was kept in Excel Spreadsheets, using a numerical/text coding system. All positive drugs (positive defined as at least a 50% increased in protein expression) were re-evaluated.

[2] = intravenous, antibiotic doses, after 0.5 hours; cited from earlier work
[3] = intravenous, pediatric bacterial meningitis, after 3-4 hours; cited from earlier work
[4] = test system: GLT1; experiment: GLT1 expression in spinal cords of chronically treated G93A mice; assay type: in vivo
[5] = test system: G93A SOD1 mice; experiment: In vivo neuroprotection in the G93A SOD1 mouse
Source text: Numerous studies have documented a contributory role for excess glutamate in this mouse model—and role for modulating glutamate receptors or transporters in neuroprotective strategies. Guo H., et al. Hum Mol. Genet. 2003; 12:2519-2532. Modest over expression—by a transgenic approach—can alter disease onset and/or survival.

[6] = test system: large ventral horn motor neurons in organotypic spinal cord cultures; experiment: In vitro model of chronic motor neurodegeneration (THA) in organotypic spinal cord cultures; assay type: cell-based, rat; conditions: THA 100 μM, 4 weeks, drug 0 to 100 μM, FIG. 7B
Procedure: In vitro model of chronic motor neurodegeneration (FIG. 7B). A model of chronic neurodegeneration was used, based on the blockade of glutamate transport in spinal cord organotypic cultures, with the non specific inhibitor threo-hytdroyxaspartate (THA) or TBOA. Chronic incubation of cultures with THA (or TBOA) leads to chronic increase in extra cellular glutamate and subsequent slow death of motor neurons (over 4 weeks).
To determine if drug induced GLT1 promoter activation, and the subsequent over expression of GLT1 protein could be neuroprotective, we used the organotypic spinal cord paradigm. Organotypic spinal cord cultures were prepared from lumbar spinal cords of 8-day-old rat pups, as described previously. […] No drugs were added for the first 7 days following culture preparation. THA was then added to experimental cultures at a concentration of 100 μM, which produces death of motor neurons within 3 to 4 weeks. […] After 4 weeks, cultures were fixed, and immuostained for neurofilament (SMI-32, Sternberger) to quantify large ventral horn motor neurons (a well established method to follow motor neuron survival in this system).

[7] = test system: primary cortical mixed neuronal-glial cell cultures; assay type: cell-based
Procedure: In Vitro Model of Ischemia—Oxygen glucose deprivation (FIG. 7A) The in vitro model of oxygen glucose deprivation (OGD) is a well known and well accepted model of acute neural injury. In our in vitro model of ischemia, one hour of oxygen glucose deprivation (OGD) is lethal to cultured neurons, with toxicity known to involve excess glutamate. However, when these cultures are preconditioned 24 hours prior to the lethal condition with transient OGD (5 minutes), there is a dramatic and robust resistance of neurons to cell death.
Method. Primary cortical mixed neuronal-glial cell cultures are prepared from gestation day 14-16 CD1 mice. The preparation of these cultures from mouse fetal cortex is well-described. Experiments are performed at days in vitro 13-15. In the experimental condition, cultures are subjected to oxygen glucose deprivation (OGD), an in-vitro model of ischemia. Cortical cells are either subjected to control treatment (media, modified Earle's balanced salt solution including glucose and bubbled with 5% CO2 95% O2, is changed alongside treatment groups, but no OGD is performed), or 5 minutes (sublethal) of OGD (using modified Earle's balanced salt solution which is devoid of glucose and bubbled with 10% H2, 85% N2, and […]). Anaerobic conditions are achieved using an anaerobic chamber at 37° C. OGD is terminated by exchange of media back to oxygenated growing medium. Twenty-four hours following the above, cortical cells are subjected either to no treatment, or one hour of OGD. Neuronal survival is determined by computer-assisted cell counting after staining with the fluorescent vital dyes propidium iodide (as an indicator of neuronal death) and Hoechst 33342 (as an indicator of total number of neurons) and is presented as percent of cell death. Glial nuclei fluoresce at a lower intensity and are gated out. […] Following 1 hour OGD, cells are returned to growing medium without drugs.

[8] = test system: cultures prepared from GLT-1 null mice; experiment: Chronic motor neurodegeneration model in cultures prepared from GLT-1 null mice; assay type: cell-based; conditions: not shown
[9] = 200 mg/kg ip from approximately 12 weeks of age
[10] = started at 70 days of age, two weeks of therapy, vs saline

For `CCC(C)(C)C(=O)C(=O)N1CCC[C@H]1C(=O)OCCCc1cccnc1` [GPI-1046], the EAAT2 expression [1] was “large increase”.

For `CO/N=C(\C(=O)N[C@@H]1C(=O)N2C(C(=O)O)=C(CSc3nc(=O)c(=O)[nH]n3C)CS[C@H]12)c1csc(N)n1` [ceftriaxone sodium], the “maximum average plasma level” value [2] is listed as 82 to 257 µg/mL and the “maximum CSF level in inflamed meninges” value [3] is listed as 1.3 to 44 µg/mL.

With `CO/N=C(\C(=O)N[C@@H]1C(=O)N2C(C(=O)O)=C(CSc3nc(=O)c(=O)[nH]n3C)CS[C@H]12)c1csc(N)n1` [ceftriaxone] the “endogenous GLT1 expression in spinal cords” value [4] was “increase endogenous GLT1 expression significantly”, the “age by which strength preservation was lost” value [5, 9] was at most 18 weeks and the “persistence of strength effect” value [5, 9] was 4 weeks. For the same molecule, the “time after treatment at which strength effect was observed” value [5, 9] was at most 7 days, the “loss of muscle strength (grip strength)” value ([5]; 200 mg/kg ip from approximately 12 weeks of age, FIG. 7C) was “significantly delayed” and the “increase of over all survival” value ([5]; 200 mg/kg ip from approximately 12 weeks of age, FIG. 7D) was 7 to 10 days. For the same molecule, the “survival, earlier administration” value ([5]; same dose started at 42 days of age) was “survival was also increased”, the “hypercellular-associated gliosis and inflammation” value [5, 10] was “reduction” and the “motor neuron loss in vivo” value [5, 10] was “significant prevention”. The “motor neuron loss / neuroprotection” value [6] was “prevented motor neurons loss in a dose dependent manner”, the “increase of GLT1 protein and function” value ([1]; concentration used in the THA neuroprotection study) was “at least 3 fold” and the EC50 ([1]; follow-up dose response analysis, FIG. 2F) was 3.5 µM. For the same molecule, the “percentage of neuronal cell death” value ([7]; 1 μM added 48 hours prior to 1 hour OGD, 50% without drug) was 20%, the “neuroprotection, acute administration” value ([7]; acute administration, 1 hour OGD) was “not protective” and the “neuroprotection in GLT-1 null cultures” value [8] was “cannot be seen”.

For `CO/N=C(\C(=O)N[C@@H]1C(=O)N2C(C(=O)O)=C(COC(N)=O)CS[C@H]12)c1ccco1` [cefuroxime], the “neuroprotection, pretreatment” value ([7]; compared with ceftriaxone, 1 hour OGD) was “Comparable neuroprotection”.

With `CCCC(=O)Nc1ncnc2c1ncn2[C@@H]1O[C@@H]2COP(=O)(O)O[C@H]2[C@H]1OC(=O)CCC` [dbcAMP, dibutyryl cyclic AMP] the EAAT2 expression [1] was “large increase”.

With `CN[C@H](CC(C)C)C(=O)N[C@H]1C(=O)N[C@@H](CC(N)=O)C(=O)N[C@H]2C(=O)N[C@H]3C(=O)N[C@H](C(=O)N[C@H](C(=O)O)c4cc(O)cc(O)c4-c4cc3ccc4O)[C@H](O)c3ccc(c(Cl)c3)Oc3cc2cc(c3O[C@@H]2O[C@H](CO)[C@@H](O)[C@H](O)[C@H]2O[C@H]2C[C@](C)(N)[C@H](O)[C@H](C)O2)Oc2ccc(cc2Cl)[C@H]1O` [vancomycin] the GLT1 levels [1] was “did not alter”.

With penicillin the “active in increasing EAAT2 in the first screen” value ([1]; first screen, 10-100 μM) was “active”.

B1: GDNF: positive control for transporter synthesis (protein, UniProt P39905 78-211, looked up)
Glial cell line-derived …: SPDKQMAVLPRRERNRQAAAANPENSRGKGRRGQRGKNRGCVLTAIHLNVTDLGLGYETKEELIFRYCSGSCDAAETTYDKILKNLSRNRRLVSDKVGQACCRPIAFDDDLSFLDDNLVYHILRKHSAKRCGCI
With B1 the EAAT2 expression [1] was “large increase”.
